Columns and labels:
thrombin = experiment: Anti-coagulation activity in human: IIaIC90 (thrombin time); type: biochemical; details: concentration for 90% inhibition of thrombin activity, from thrombin time; human plasma
Procedure: (§1) Using the citric acid-containing plasma obtained from more than 6 normal persons, the D-HG sodium salt (Example 16), a FGAG sodium/potassium salt and a heparin sodium salt were each observed for the activity in respect of anticoagulation parameters (μg/ml).
IIaIC90 is a concentration (μg/ml) for 90% inhibition of thrombin activity which was calculated by measuring the activity to prolong the thrombin time.

[1] = tested on: DIC model (thrombin injected into ICR mice); experiment: Effect on DIC model (thrombin-induced fatality, survival rate); type: in vivo; details: dose 1 mg/kg i.v. one minute before 800 U/kg thrombin; after 24 hours
Procedure: D-HG, FGAG and heparin were tested for an effect on DIC model in accordance with the method described in Japan J. Pharmacol, 35, 203-227 (1984).
Used as D-HG was the sodium salt obtained in Example 16, as FGAG the sodium/potassium salt obtained in Reference Example 1 and as a heparin a sodium salt having a potency of 185.6 U/mg.
A 800 U/kg of thrombin was intravenously injected into ICR mice (10 to 15 mice a group). […] The D-HG sodium salt, FGAG sodium/potassium salt or heparin sodium salt was intravenously injected one minute before the administration of thrombin.

factor X = experiment: Anti-coagulation activity in human: XaIC50 (decomposition of synthetic substrate S2222); type: biochemical; details: 50% inhibition of decomposition of synthetic substrate S2222
Excerpt: as §1
XaIC50 is a medicament concentration (μg/ml) for 50% inhibition of decomposition of synthetic substrate S2222 with a factor X.

[2] = tested on: thrombin generation (inactivation of prothrombin in contact-activated plasma); experiment: Anti-coagulation activity in human: IIaGI (thrombin generation); type: biochemical; details: concentration required to double control's time for complete inactivation of prothrombin in contact-activated plasma
Excerpt: as §1
IIaGI is the concentration (μg/ml) required to double the control's time for complete inactivation of prothrombin in the contact-activated plasma. This represents an activity to inhibit the thrombin generation.

[3] = tested on: citric acid-containing plasma (activated partial thromboplastin time); experiment: Anti-coagulation activity in human: x2APTT; type: biochemical; details: concentration required to double APTT of control
Excerpt: as §1

factor VIII = experiment: Anti-coagulation activity in human: VIII IC80 (factor VIII deficient plasma); type: biochemical; details: 80% inhibition of factor VIII, contact-activated coagulation time
Procedure: as §1
VIII IC80 is a medicament concentration (μg/ml) for 80% inhibition of factor VIII which was calculated by measuring the activity to prolong the contact-activated coagulation time in the presence of a small amount of factor VIII using a factor VIII deficient plasma.

[4] = tested on: plasma-free washed platelet; experiment: Inhibitory activity against thrombin-induced platelets aggregation; type: cell-based; details: 3 μg/ml; 0.1 U/ml thrombin; rabbit washed platelets (control 86.6)
Procedure: The result of addition of the D-HG sodium salt obtained in Example 16 or a heparin sodium salt having a potency of 185.6 U/mg was evaluated by observing the aggregation of platelets (expressed in an increase of light transmittance) caused by the addition of 0.1 U/ml of thrombin to a suspension of plasma-free washed platelet obtained from a rabbit.

## heparin [Heparin sodium salt]
thrombin
  IIaIC90: 0.3 µg/mL
[1]
  Survival rate: 80%
Factor X
  XaIC50: 3.4 µg/mL
[2]
  IIaGI: 1.2 µg/mL
[3]
  x2APTT: 1.2 µg/mL
Factor VIII
  VIII IC80: 0.79 µg/mL
[4]
  Light transmittance: 80.2%
